Assay results as given in paper PMC8552062, “Contributions of UDP-Glucuronosyltransferases to Human Hepatic and Intestinal Metabolism of Ticagrelor and Inhibition of UGTs and Cytochrome P450 Enzymes by Ticagrelor and its Glucuronidated Metabolite” (Frontiers in Pharmacology, 2021).

Columns and labels:
[1] = target: T1, UGT2B7 (Homo sapiens, UniProt P16662); test: Ticagrelor glucuronidation by recombinant human UGT2B7; assay type: in vitro ADME; parameters: purchased BD Gentest; host or cells: baculovirus-infected insect cells; details: recombinant human UGT2B7, pH 7.4
T1 sequence (P16662 24-529): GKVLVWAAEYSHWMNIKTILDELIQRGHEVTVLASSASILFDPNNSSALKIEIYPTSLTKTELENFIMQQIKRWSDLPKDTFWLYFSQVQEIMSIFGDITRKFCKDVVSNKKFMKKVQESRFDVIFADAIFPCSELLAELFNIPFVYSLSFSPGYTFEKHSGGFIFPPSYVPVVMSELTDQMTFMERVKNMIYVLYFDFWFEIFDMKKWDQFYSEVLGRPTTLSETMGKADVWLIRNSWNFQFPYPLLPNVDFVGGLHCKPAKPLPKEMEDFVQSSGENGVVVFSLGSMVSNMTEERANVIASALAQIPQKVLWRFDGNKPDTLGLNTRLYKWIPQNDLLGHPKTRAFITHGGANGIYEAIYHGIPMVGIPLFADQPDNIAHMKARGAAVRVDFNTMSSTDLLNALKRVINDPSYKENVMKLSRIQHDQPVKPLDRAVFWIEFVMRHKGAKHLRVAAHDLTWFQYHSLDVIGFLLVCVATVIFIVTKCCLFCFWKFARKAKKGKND
Experimental: Ticagrelor glucuronidation was investigated in an in vitro incubation system by using HLM, HIM, and recombinant human UGTs. The incubation system consisted of enzyme sources (HLM, HIM, or human recombinant UGTs), various concentrations of ticagrelor (dissolved in 50% methanol, 1% v/v, 1, 2, 5, 10, 20, 50, 100, 200, 500 μM of final concentration), alamethicin (50 μg/mg protein), 5 mM MgCl2, 100 mM tris-HCL buffer (pH 7.4), and 5 mM UDPGA in a total volume of 100 μl. Alamethicin is a pore-forming polypeptide used to activate UGTs in HLM and HIM ([Fisher et al., 2000]). Preliminary studies were conducted to determine the optimal protein concentrations and incubation times. Linear conditions of ticagrelor-O-Glu formation from ticagrelor, i.e., HLM, 0.2 mg of protein/ml and 60 min, HIM, 0.2 mg of protein/ml and 60 min, and recombinant human UGTs, 0.2 mg of protein/ml and 60 min were selected. The incubation mixture without UDPGA was placed on ice for 15 min to activate UGT by alamethicin. […]
Kinetic analyses were performed using the mean values of triplicate determinations with either pooled HLM, HIM, or recombinant human UGTs. All data were analyzed by nonlinear regression analysis using the GraphPad Prism 6 (GraphPad Software Inc., CA, United States). […] Intrinsic clearance (CLint) was calculated by dividing Vmax by Km.

[2] = target: T2, CYP2C8 (Homo sapiens, UniProt P10632); test: CYP2C8 inhibition in HLM (amodiaquine N-deethylase); assay type: in vitro ADME; details: HLM 0.2 mg/ml
T2 construct: co-incubation ticagrelor-O-Glu with selective P450 probe substrates in HLM; tissue XenoTech LLC; host or cells: pooled human liver microsomes
T2 sequence (P10632 whole entry): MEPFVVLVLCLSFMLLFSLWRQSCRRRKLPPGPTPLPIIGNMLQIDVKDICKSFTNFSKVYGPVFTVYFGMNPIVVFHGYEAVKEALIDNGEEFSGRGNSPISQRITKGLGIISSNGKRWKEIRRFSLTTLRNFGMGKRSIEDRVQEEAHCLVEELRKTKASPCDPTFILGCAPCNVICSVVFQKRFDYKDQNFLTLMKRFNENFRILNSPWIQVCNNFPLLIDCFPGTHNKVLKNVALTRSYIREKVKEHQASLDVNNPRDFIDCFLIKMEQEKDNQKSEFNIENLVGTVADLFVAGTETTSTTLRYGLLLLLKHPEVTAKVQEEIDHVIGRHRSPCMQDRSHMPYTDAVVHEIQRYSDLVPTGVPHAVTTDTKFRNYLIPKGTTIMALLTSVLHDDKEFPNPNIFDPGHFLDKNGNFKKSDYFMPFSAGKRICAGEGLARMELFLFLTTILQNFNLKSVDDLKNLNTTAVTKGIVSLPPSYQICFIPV
Experimental: The potential inhibitory effects of ticagrelor-O-Glu on the activities of major CYPs, i.e., CYP2B6, CYP2C8, CYP2C9, CYP2C19, CYP2D6, and CYP3A4, were evaluated by co-incubation ticagrelor-O-Glu with selective P450 probe substrates in HLM. Each incubation mixture containing 0.2 mg/ml HLM, ticagrelor-O-Glu and respective substrate (the final substrate concentrations are close to or less than the Km values: 150 μM bupropion, 1.26 μM amodiaquine, 10 μM diclofenac, 20 μM mephenytoin, 20 μM dextromethorphan and 80 μM testosterone (in house data)) in potassium phosphate buffer (100 mM, pH 7.4) was pre-incubated at 37°C for 5 min. Then, NADPH (10 mM) was added to initiate the reaction. The final volume of the incubation mixture was 100 μl. After incubation at 37°C for specific time points, the reaction was terminated by the addition of 200 μl of ice-cold methanol solution with internal standards (diazepam and furafylline). […] The formation of respective metabolites was determined to reflect P450 isoform activities. The metabolites quantified for CYP2B6, CYP2C8, CYP2C9, CYP2C19, CYP2D6, and CYP3A4 were hydroxy bupropion, N-Desethyl amodiaquine, 4′-hydroxylation diclofenac, S-4-hydroxy mephenytoin, dextrorphan and 6β-hydroxy testosterone, respectively.
The percent inhibition relative to the control was calculated to indicate the UGTs or CYPs inhibition. […]

| Structure (SMILES) | microsomal CLint [1] | IC50 [2] |
| --- | --- | --- |
| CCCSc1nc(N[C@@H]2C[C@H]2c2ccc(F)c(F)c2)c2nnn([C@@H]3C[C@H](OCCO)[C@@H](O)[C@H]3O)c2n1 [Ticagrelor] | 0.02 µL/min/mg |  |
| CCCSc1nc(N[C@@H]2C[C@H]2c2ccc(F)c(F)c2)c2nnn([C@@H]3C[C@H](OCCO[C@@H]4O[C@H](C(=O)O)[C@@H](O)[C@H](O)[C@H]4O)[C@@H](O)[C@H]3O)c2n1 [Ticagrelor-O-Glu, ticagrelor-O-glucuronide] |  | > 100 µM |
